Results reported in US20110183999A1, “NOVEL POLYMORPHIC FORMS OF METHYL CARBAMATE” (BAYER SCHERING PHARMA AKTIENGESELLSCHAFT, priority 2009, published 2011).

Key:
[1] = Thermogravimetry (TGA) mass loss; type: physicochemical; conditions: heating rate 10 Kmin^−1, open platinum crucibles, nitrogen purge
Experimental: The TGA measurements were carried out using TGA7 and Pyris-1-TGA thermobalances from Perkin-Elmer using a heating rate of 10 Kmin^−1. The measurements were carried out in open platinum crucibles, the purge gas used was nitrogen. There was no sample preparation.

[2] = Thermodynamic and storage stability of the solid form; type: physicochemical; conditions: also after processing to suspensions

SMILES	Mass loss [1]	Stability of the solid form (thermodynamic / storage) ([2]; listed as mesomorphous form)	Stability of the solid form (thermodynamic / storage) [2]
COC(=O)Nc1c(N)nc(-c2nn(Cc3ccccc3F)c3ncccc23)nc1N [amorphous, methyl {4,6-diamino-2-[1-(2-fluorobenzyl)-1H-pyrazolo[3,4-b]pyridin-3-yl]pyrimidin-5-yl}carbamate]	about 10 % by weight	–	–
COC(=O)Nc1c(N)nc(-c2nn(Cc3ccccc3F)c3ncccc23)nc1N [mesomorphous, Methyl {4,6-diamino-2-[1-(2-fluorobenzyl)-1H-pyrazolo[3,4-b]pyridin-3-yl]pyrimidin-5-yl}-carbamate, reference compound]	about 8 % by weight	metastable	–
COC(=O)Nc1c(N)nc(-c2nn(Cc3ccccc3F)c3ncccc23)nc1N [modification I, methyl {4,6-diamino-2-[1-(2-fluorobenzyl)-1H-pyrazolo[3,4-b]pyridin-3-yl]pyrimidin-5-yl}-carbamate]	<0.5 % by weight	–	thermodynamically stable and storage-stable even after processing to suspensions
COC(=O)Nc1c(N)nc(-c2nn(Cc3ccccc3F)c3ncccc23)nc1N [modification II, methyl {4,6-diamino-2-[1-(2-fluorobenzyl)-1H-pyrazolo[3,4-b]pyridin-3-yl]pyrimidin-5-yl}carbamate]	<0.5 % by weight	–	–
COC(=O)Nc1c(N)nc(-c2nn(Cc3ccccc3F)c3ncccc23)nc1N [modification III, methyl {4,6-diamino-2-[1-(2-fluorobenzyl)-1H-pyrazolo[3,4-b]pyridin-3-yl]pyrimidin-5-yl}carbamate]	<0.5 % by weight	–	–
COC(=O)Nc1c(N)nc(-c2nn(Cc3ccccc3F)c3ncccc23)nc1N [modification IV, methyl {4,6-diamino-2-[1-(2-fluorobenzyl)-1H-pyrazolo[3,4-b]pyridin-3-yl]pyrimidin-5-yl}carbamate]	<1 % by weight	–	–
